Assay results taken from PubChem BioAssay AID248 (DTP/NCI, 2004).
“And” between values parts separate entries of the source, which are not always exact repeats. Equal entries are not always repeated. Inconclusive results and toxic doses are left out. Cut-off read from the data, not from the text of the source: active = T/C of 150% or more; inactive = T/C below 125%.

Tested on: L1210 leukemia ip in BDF1 mice, survival T/C
Test: NCI In Vivo Anticancer Drug Screen. Data for tumor model L1210 Leukemia (intraperitoneal) in B6D2F1 (BDF1) mice
Conditions: endpoint: mean survival time, higher = longer survival
How it was run: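 In this screen, tumor-bearing mice given compound are compared to those given vehicle, and their survival values are reported as a treated-to-control quotient.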

[1] = dose: 100.0 mg/kg/injection, schedule: Q01DX009 (ip), vehicle: Klucel (hydroxypropylcellulose) (HPC)
[2] = dose: 200.0 mg/kg/injection, schedule: Q01DX009 (ip), vehicle: Klucel (hydroxypropylcellulose) (HPC)
[3] = dose: 400.0 mg/kg/injection, schedule: Q01DX009 (ip), vehicle: Klucel (hydroxypropylcellulose) (HPC)
[4] = dose: 100.0 mg/kg/injection, schedule: Q01DX001 (ip), vehicle: carboxymethylcellulose (CMC)
[5] = dose: 200.0 mg/kg/injection, schedule: Q01DX001 (ip), vehicle: carboxymethylcellulose (CMC)
[6] = dose: 50.0 mg/kg/injection, schedule: Q01DX009 (ip), vehicle: saline with Tween-80
[7] = dose: 100.0 mg/kg/injection, schedule: Q01DX009 (ip), vehicle: saline with Tween-80
[8] = dose: 200.0 mg/kg/injection, schedule: Q01DX009 (ip), vehicle: saline with Tween-80
[9] = dose: 400.0 mg/kg/injection, schedule: Q01DX001 (ip), vehicle: carboxymethylcellulose (CMC)
[10] = dose: 75.0 mg/kg/injection, schedule: Q01DX001 (ip), vehicle: saline
[11] = dose: 150.0 mg/kg/injection, schedule: Q01DX001 (ip), vehicle: saline
[12] = dose: 100.0 mg/kg/injection, schedule: Q01DX001 (ip), vehicle: saline
[13] = dose: 200.0 mg/kg/injection, schedule: Q01DX001 (ip), vehicle: saline
[14] = dose: 400.0 mg/kg/injection, schedule: Q01DX001 (ip), vehicle: saline
[15] = dose: 100.0 mg/kg/injection, schedule: Q04DX003 (ip), vehicle: saline with Tween-80
[16] = dose: 200.0 mg/kg/injection, schedule: Q04DX003 (ip), vehicle: saline with Tween-80
[17] = dose: 400.0 mg/kg/injection, schedule: Q04DX003 (ip), vehicle: saline with Tween-80
[18] = dose: 12.5 mg/kg/injection, schedule: Q01DX009 (ip), vehicle: saline with Tween-80
[19] = dose: 50.0 mg/kg/injection, schedule: Q01DX009 (ip), vehicle: Klucel (hydroxypropylcellulose) (HPC)
[20] = dose: 100.0 mg/kg/injection, schedule: Q04DX003 (ip), vehicle: Klucel (hydroxypropylcellulose) (HPC)
[21] = dose: 200.0 mg/kg/injection, schedule: Q04DX003 (ip), vehicle: Klucel (hydroxypropylcellulose) (HPC)
[22] = dose: 400.0 mg/kg/injection, schedule: Q04DX003 (ip), vehicle: Klucel (hydroxypropylcellulose) (HPC)
[23] = dose: 100.0 mg/kg/injection, schedule: Q04DX002 (ip), vehicle: saline with Tween-80
[24] = dose: 200.0 mg/kg/injection, schedule: Q04DX002 (ip), vehicle: saline with Tween-80
[25] = dose: 400.0 mg/kg/injection, schedule: Q04DX002 (ip), vehicle: saline with Tween-80
[26] = dose: 25.0 mg/kg/injection, schedule: Q01DX009 (ip), vehicle: saline with Tween-80

Measured: T/C

CCCCCCCCN(C)N=Nc1ccc(C(=O)O)cc1
inactive: dose: 25.0 mg/kg/injection, schedule: Q04DX003 (ip), vehicle: other 93 % of control | dose: 50.0 mg/kg/injection, schedule: Q04DX003 (ip), vehicle: other 90 % of control | [1] 102 % of control | dose: 100.0 mg/kg/injection, schedule: Q04DX003 (ip), vehicle: other 92 % of control | [2] 102 % of control | dose: 200.0 mg/kg/injection, schedule: Q04DX003 (ip), vehicle: other 90 % of control | dose: 300.0 mg/kg/injection, schedule: Q01DX009 (ip), vehicle: Klucel (hydroxypropylcellulose) (HPC) 98 % of control | [3] 122 % of control and 90 % of control | dose: 400.0 mg/kg/injection, schedule: Q04DX003 (ip), vehicle: other 95 % of control | dose: 600.0 mg/kg/injection, schedule: Q01DX009 (ip), vehicle: Klucel (hydroxypropylcellulose) (HPC) 98 % of control

NC(=O)c1ncn(C2OC(CO)C(O)C2O)c1C(N)=O (stereo not given)
inactive: [4] 104 % of control | [5] 123 % of control

C=CCC(C(=O)OC)C(=O)C(C)(C)C (stereo not given)
inactive: [6] 100 % of control | [7] 92 % of control | [8] 100 % of control

CC(Cl)CO (stereo not given)
inactive: dose: 75.0 mg/kg/injection, schedule: Q01DX001 (ip), vehicle: carboxymethylcellulose (CMC) 108 % of control | dose: 150.0 mg/kg/injection, schedule: Q01DX001 (ip), vehicle: carboxymethylcellulose (CMC) 97 % of control | dose: 300.0 mg/kg/injection, schedule: Q01DX001 (ip), vehicle: carboxymethylcellulose (CMC) 97 % of control

CNC(=O)O/N=C(/C)c1ccc(Cl)cc1
inactive: [4] 93 % of control | [5] 101 % of control | [9] 101 % of control

COc1ccc(C)cc1NC(=O)NNC(=O)c1ccc(Cl)cc1
inactive: [6] 98 % of control | [7] 98 % of control | [8] 98 % of control

O=C(O)CCCc1nccc2ccccc12
inactive: [10] 102 % of control | [11] 92 % of control

O=c1[nH]cnc2nc(I)[nH]c12
inactive: [12] 104 % of control | [13] 98 % of control | [14] 98 % of control

O=S1(=O)CCCC1C(O)(c1ccccc1)c1ccccc1 (stereo not given)
inactive: [15] 97 % of control | [16] 92 % of control | [17] 94 % of control

C[P+](C)(c1ccccc1)c1ccccc1
inactive: dose: 3.12 mg/kg/injection, schedule: Q01DX009 (ip), vehicle: saline with Tween-80 108 % of control | dose: 6.25 mg/kg/injection, schedule: Q01DX009 (ip), vehicle: saline with Tween-80 101 % of control | [18] 97 % of control | dose: 12.5 mg/kg/injection, schedule: Q04DX003 (ip), vehicle: saline with Tween-80 102 % of control

CN(C)N=Nc1ccccc1C#N
inactive: [19] 103 % of control | [1] 108 % of control | [20] 112 % of control | [2] 113 % of control | [21] 113 % of control | [3] 105 % of control and 120 % of control | [22] 107 % of control

CCC1(C)OC(=O)NC1=O (stereo not given)
inactive: [6] 96 % of control | [7] 101 % of control | [8] 86 % of control

CCCCC(=O)OC1CC2CCC1(C)C2(C)C (stereo not given)
inactive: [1] 102 % of control | [20] 96 % of control | [2] 102 % of control | [21] 96 % of control | [3] 104 % of control | [22] 100 % of control

O=P(c1ccc(F)cc1)(c1ccc(F)cc1)c1ccc(F)cc1
inactive: dose: 12.5 mg/kg/injection, schedule: Q01DX009 (ip), vehicle: Klucel (hydroxypropylcellulose) (HPC) 101 % of control | dose: 25.0 mg/kg/injection, schedule: Q01DX009 (ip), vehicle: Klucel (hydroxypropylcellulose) (HPC) 103 % of control

CCCCCS(=O)(=O)N(CC)CC
inactive: [23] 96 % of control | [24] 96 % of control | [25] 89 % of control

O=C(/C=C/c1ccccc1)N(Cc1ccccc1)c1ccccc1
inactive: [1] 97 % of control | [2] 101 % of control | [3] 103 % of control

Clc1ccc(Cc2ccc(Cl)cc2)cc1
inactive: [4] 107 % of control | [5] 100 % of control | [9] 102 % of control

Cc1cc(CC(Cl)(C(F)(F)F)C(F)(F)F)cc(CC(Cl)(C(F)(F)F)C(F)(F)F)n1
inactive: [18] 108 % of control | [26] 106 % of control

CCN(CC)C(=S)[S][Pb]([S]C(=S)N(CC)CC)([c]1ccccc1)[c]1ccccc1
inactive: dose: 100.0 mg/kg/injection, schedule: Q01DX001 (ip), vehicle: steriod suspending solution 97 % of control | dose: 200.0 mg/kg/injection, schedule: Q01DX001 (ip), vehicle: steriod suspending solution 98 % of control | dose: 400.0 mg/kg/injection, schedule: Q01DX001 (ip), vehicle: steriod suspending solution 100 % of control

NC(=O)CC(NC(=O)OCc1ccccc1)C(=O)O (stereo not given)
inactive: [19] 95 % of control | [1] 95 % of control | [2] 109 % of control

O=C(COC(=O)c1ccccc1O)c1ccc(-c2ccccc2)cc1
inactive: [12] 94 % of control | [13] 88 % of control | [14] 88 % of control

CC(C)=CCC/C(C)=C/CNC(=O)/C=C/C(=O)O
inactive: [26] 98 % of control | [6] 93 % of control | dose: 50.0 mg/kg/injection, schedule: Q04DX003 (ip), vehicle: saline with Tween-80 91 % of control | [7] 100 % of control and 90 % of control | [15] 94 % of control and 98 % of control | [8] 105 % of control | [16] 86 % of control | dose: 400.0 mg/kg/injection, schedule: Q01DX009 (ip), vehicle: saline with Tween-80 94 % of control | [17] 97 % of control

CCCC1CCCC(=O)N1 (stereo not given)
inactive: [10] 98 % of control | [11] 98 % of control

CCOC(=O)c1cc([N+](=O)[O-])ccc1N=Nc1cc(OC)c(N)cc1OC
inactive: dose: 100.0 mg/kg/injection, schedule: Q01DX001 (ip), vehicle: other 111 % of control | dose: 200.0 mg/kg/injection, schedule: Q01DX001 (ip), vehicle: other 103 % of control | dose: 400.0 mg/kg/injection, schedule: Q01DX001 (ip), vehicle: other 103 % of control

CCc1ccc2c(-c3ccccc3)ccc3c2c1C(=O)c1ccccc1-3
inactive: [23] 94 % of control | [24] 88 % of control | [25] 91 % of control

CN(Cc1ccccc1)C(=O)c1cccc(C(=O)N(C)Cc2ccccc2)c1
inactive: dose: 100.0 mg/kg/injection, schedule: Q01DX009 (ip), vehicle: other 97 % of control | dose: 200.0 mg/kg/injection, schedule: Q01DX009 (ip), vehicle: other 97 % of control | dose: 400.0 mg/kg/injection, schedule: Q01DX009 (ip), vehicle: other 94 % of control

CCCCCCCCCCCCCCCSc1ccc(Br)cc1
inactive: [15] 97 % of control | [16] 102 % of control | [17] 94 % of control

CC(C)C(=O)c1ccc(-c2ccccc2)cc1
inactive: dose: 25.0 mg/kg/injection, schedule: Q01DX009 (ip), vehicle: water 101 % of control | dose: 50.0 mg/kg/injection, schedule: Q01DX009 (ip), vehicle: water 106 % of control | dose: 100.0 mg/kg/injection, schedule: Q01DX009 (ip), vehicle: water 98 % of control | dose: 200.0 mg/kg/injection, schedule: Q01DX009 (ip), vehicle: water 95 % of control | dose: 400.0 mg/kg/injection, schedule: Q01DX009 (ip), vehicle: water 93 % of control

O=C/C=C/Nc1ccccc1
inactive: dose: 100.0 mg/kg/injection, schedule: Q04DX003 (ip), vehicle: saline 105 % of control | dose: 200.0 mg/kg/injection, schedule: Q04DX003 (ip), vehicle: saline 108 % of control | dose: 400.0 mg/kg/injection, schedule: Q04DX003 (ip), vehicle: saline 100 % of control
